Source: ChEMBL document CHEMBL1148887, “Design and synthesis of benzoazepinone-derived cyclic malonamides and aminoamides as potent gamma-secretase inhibitors” (Bioorg Med Chem Lett, 2007)

Legend:
Gamma-secretase [1] = test: Inhibition of gamma secretase in APP-transfected CHO cells; type: cell-based, Homo sapiens
Gamma-secretase [2] = test: Displacement of [3H]succinamide from gamma secretase in THP1 cell membranes; set-up: species or system Homo sapiens; details: thp-1
[3] = Oral bioavailability in Beagle dog at 0.5 mg/kg, po; type: ADME, organism-based, Canis lupus familiaris; details: in vivo
Canis familiaris = test: Volume of distribution at steady state in Beagle dog at 0.5 mg/kg, po; type: ADME, organism-based, Canis lupus familiaris; set-up: dose 0.5 mg/kg, route oral; details: in vivo
[4] = Half life in Beagle dog at 0.5 mg/kg, po; type: ADME, organism-based, Canis lupus familiaris; set-up: dose 0.5 mg/kg, route oral; details: in vivo
[5] = Cmax in Beagle dog at 0.5 mg/kg, po; type: ADME, organism-based, Canis lupus familiaris; set-up: dose 0.5 mg/kg, route oral; details: in vivo
[6] = Fraction unbound ligand in Beagle dog at 0.5 mg/kg, po; type: ADME, organism-based, Canis lupus familiaris; set-up: dose 0.5 mg/kg, route oral; details: in vivo
[7] = Clearance in Beagle dog at 0.5 mg/kg, po; type: ADME, organism-based, Canis lupus familiaris; set-up: dose 0.5 mg/kg, route oral; details: in vivo
Gamma-secretase [8] = test: Inhibition of gamma secretase-mediated beta amyloid production in NIH3T3 cells; type: cell-based, Homo sapiens

Structure (SMILES)	IC50 (Gamma-secretase [1]) [nM]	Ki (Gamma-secretase [2]) [nM]	bioavailability [3] [%]	Vdss (Canis familiaris) [L/kg]	half-life [4] [h]	Cmax [5] [nM]	fraction unbound [6]	CL/F [7] [mL/min/kg]	IC50 (Gamma-secretase [8]) [nM]
CN1C(=O)[C@@H](NC(=O)C2(C(=O)NCc3cccs3)CCCC2)N=C(c2ccccc2)c2ccccc21	19	41							
CCCCNC(=O)C1(C(=O)N[C@H]2N=C(c3ccccc3)c3ccccc3N(C)C2=O)CCC1	20	11							
CC(C)CNC(=O)C1(C(=O)N[C@H]2N=C(c3ccc(C(F)(F)F)cc3)c3ccccc3N(C)C2=O)CCCC1	12.5	2							
CN1C(=O)[C@@H](NC(=O)C2(C(=O)NCCC3CCCC3)CCC2)c2ccccc2-c2ccccc21	21	1.3	71	2.9	13.4	365	0.002	5	
CCCNC(=O)C1(C(=O)N[C@H]2N=C(c3ccccc3)c3ccccc3N(C)C2=O)CCC1	82	15							
CN1C(=O)[C@@H](NC(=O)C2(C(=O)N[C@H](O)C3CCCCC3)CCC2)N=C(c2ccc(C(F)(F)F)cc2)c2ccccc21	280	111							
CC(C)[C@H](O)NC(=O)C1(C(=O)N[C@@H]2C(=O)N(C)c3ccccc3-c3ccccc32)CCC1	15	3.9							
CN1C(=O)[C@@H](NC(=O)C2(C(=O)NCCC3CCCC3)CCCC2)N=C(c2ccccc2)c2ccccc21		36							
CN1C(=O)[C@@H](NC(=O)C2(C(=O)NCCC3CCCC3)CCC2)N=C(c2ccc(C(F)(F)F)cc2)c2ccccc21	13	2.2							
CC(C)CC(F)(F)NC(=O)C1(C(=O)N[C@@H]2C(=O)N(C)c3ccccc3-c3ccccc32)CCC1	280	22							
CC(C)C[C@H](O)NC(=O)C1(C(=O)N[C@H]2N=C(c3ccc(C(F)(F)F)cc3)c3ccccc3N(C)C2=O)CCC1	6.1	2.1	84	0.2	6.5	2980	0.017	0.667	6.1
CC(C)CNC(=O)C1(C(=O)N[C@H]2N=C(c3ccc(C(F)(F)F)cc3)c3ccccc3N(C)C2=O)CCC1	28	1.2							
CN1C(=O)[C@@H](NC(=O)C2(C(=O)NCc3cc(F)cc(F)c3)CCCC2)N=C(c2ccccc2)c2ccccc21	96	9.9							
CCNC(=O)C(CC)(CC)C(=O)N[C@H]1N=C(c2ccccc2)c2ccccc2N(C)C1=O		1000							
CC(C)CNC(=O)C1(C(=O)N[C@H]2N=C(c3ccccc3)c3ccccc3N(C)C2=O)CCC1	21	3.5	42	3.1	5.3	84	0.004	21.7	
CC(C)C[C@H](O)NC(=O)C1(C(=O)N[C@@H]2C(=O)N(C)c3ccccc3-c3ccccc32)CCC1	4.2	0.9							
CC(C)CCNC(=O)C1(C(=O)N[C@H]2N=C(c3ccc(C(F)(F)F)cc3)c3ccccc3N(C)C2=O)CCC1	14	4.9	61	1.9	13.2	567	0.005	3.33	
CC(C)CCNC(=O)C1(C(=O)N[C@@H]2C(=O)N(C)c3ccccc3-c3ccccc32)CCC1	15	4	23	0.9	5.3	172	0.005	3.33	
CC(C)[C@H](O)NC(=O)C1(C(=O)N[C@H]2N=C(c3ccc(C(F)(F)F)cc3)c3ccccc3N(C)C2=O)CCC1	6.7	1.1							
CCCNC(=O)C(CC)(CC)C(=O)N[C@H]1N=C(c2ccccc2)c2ccccc2N(C)C1=O		227							
CC(C)CNC(=O)C1(C(=O)N[C@H]2N=C(c3ccccc3)c3ccccc3N(C)C2=O)CCCC1	19.5	6.2							
CN1C(=O)[C@@H](NC(=O)C2(C(=O)NCc3cc(F)cc(F)c3)CCC2)N=C(c2ccccc2)c2ccccc21	115	13.5							
CC(C)CNC(=O)C1(C(=O)N[C@@H]2C(=O)N(C)c3ccccc3-c3ccccc32)CCCC1	26.1	3							
CC(C)CNC(=O)C1(C(=O)N[C@@H]2C(=O)N(C)c3ccccc3-c3ccccc32)CCC1	5.8	1.4	47	2.1	4.6	184	0.001	8.33	
CN1C(=O)[C@@H](NC(=O)C2(C(=O)N[C@@H](O)C3CCCCC3)CCC2)N=C(c2ccc(C(F)(F)F)cc2)c2ccccc21	11	3.1							
